Entries after “also recorded” stand apart in the source; their conditions may differ. Where a name gives a salt, the structure may show the parent alone.
How the values were obtained:
[1] = system: OV-10-0050 ovarian cancer tumor; experiment: In vivo xenograft PDX model (OV-10-0050 ovarian patient derived xenograft)
Method: RAD1901 used in the examples below was (6R)-6-(2-(N-(4-(2-(ethylamino)ethyl)benzyl)-N-ethylamino)-4-methoxyphenyl)-5,6,7,8-tetrahydronaphthalen-2-ol dihydrochloride, manufactured by IRIX Pharmaceuticals, Inc. (Florence, S.C.). RAD1901 was stored as a dry powder, formulated for use as a homogenous suspension in 0.5% (w/v) methylcellulose in deionized water, and for animal models was administered p.o.
All mice were housed in pathogen-free housing in individually ventilated cages with sterilized and dust-free bedding cobs, access to sterilized food and water ad libitum, under a light dark cycle (12-14 hour circadian cycle of artificial light) and controlled room temperature and humidity.
The PDX shown in FIG. 1 was the OV-10-0050 ovarian cancer tumor, derived from an ovarian adenocarcinoma from a person. The tumor was grade 3 and positive for cytokeratin indicating an ovarian epithelial type. The tumor also stained positive for ER and an ER target gene (progesterone receptor). The OV-10-0050 PDX model was established from viable human tumor tissue that had been serially passaged in animals (female Balb/c nude mice) a limited number of times to maintain tumor heterogeneity. […]
Tumor sizes were measured twice per week in two dimensions using a caliper, and the volume was expressed in mm^3 using the formula: V=0.5 a×b^2 where a and b were the long and short diameters of the tumor, respectively. […]
TGI was calculated for each group using the formula: TGI (%)=[1−(Ti−T0)/(Vi−V0)]×100; Ti is the average tumor volume of a treatment group on a given day, T0 is the average tumor volume of the treatment group on the day of grouping, Vi is the average tumor volume of the vehicle control group on a given day with Ti, and V0 is the average tumor volume of the vehicle group on the day of grouping. […]
A one-way ANOVA was performed to compare tumor volume among RAD1901-treted groups compared to the vehicle-treated group on day 32 of treatment. All data were analyzed using Graphpad Prism. p<0.05 was considered to be statistically significant.

ERα = target: T1, ERα (Homo sapiens, UniProt P03372); settings: ERα versus estrogen receptor beta (ERβ); cited from earlier work
T1 sequence (P03372 1-595): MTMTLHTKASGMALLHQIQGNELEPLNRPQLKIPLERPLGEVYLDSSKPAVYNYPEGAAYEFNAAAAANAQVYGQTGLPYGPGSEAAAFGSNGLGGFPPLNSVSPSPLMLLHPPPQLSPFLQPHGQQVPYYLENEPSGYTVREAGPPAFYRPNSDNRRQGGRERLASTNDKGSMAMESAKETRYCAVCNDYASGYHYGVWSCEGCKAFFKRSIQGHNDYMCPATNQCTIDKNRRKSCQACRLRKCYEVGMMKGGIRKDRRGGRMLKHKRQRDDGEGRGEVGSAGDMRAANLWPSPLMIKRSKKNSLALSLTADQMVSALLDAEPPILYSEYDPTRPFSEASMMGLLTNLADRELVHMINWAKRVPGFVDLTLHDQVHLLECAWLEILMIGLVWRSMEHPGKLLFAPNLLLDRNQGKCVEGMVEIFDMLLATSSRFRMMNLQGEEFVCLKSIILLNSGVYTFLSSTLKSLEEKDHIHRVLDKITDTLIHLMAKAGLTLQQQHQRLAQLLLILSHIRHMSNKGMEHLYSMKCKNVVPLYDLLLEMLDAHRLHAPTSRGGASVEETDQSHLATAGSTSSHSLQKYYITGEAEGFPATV

[2] = system: breast cancer xenograft models; settings: regardless of ESR1 mutation status and prior endocrine therapy; cited from earlier work

CCNCCc1ccc(CN(CC)c2cc(OC)ccc2[C@@H]2CCc3cc(O)ccc3C2)cc1 [RAD1901, (6R)-6-(2-(N-(4-(2-(ethylamino)ethyl)benzyl)-N-ethylamino)-4-methoxyphenyl)-5,6,7,8-tetrahydronaphthalen-2-ol dihydrochloride]
tolerability (reason the group was taken down) ([1]; 60 mg/kg p.o. q.d., Day 32, tumor-bearing Balb/c nude mice): weakness and heavy body weight loss | tumor regression ([1]; OV-10-0050 PDX, 30 mg/kg and 60 mg/kg p.o. daily, individual tumor sizes on Day 32, FIG. 2, dihydrochloride): drive tumor regression; also recorded: tumor regressions in some animals | tumor growth inhibition (TGI) ([1]; OV-10-0050 PDX, RAD1901 30 or 60 mg/kg p.o. q.d., day 32, approximately equal activity at both dose groups, FIG. 1): about 80% | binding preference ERα versus ERβ (ERα): preferentially bind ERα | tumor growth inhibition and/or regression [2]: inhibit tumor growth and/or drive tumor regression

Reference: US20200009085A1, “Methods For Treating Ovarian Cancer” (RADIUS HEALTH, INC., priority 2016, published 2020)
